Laboratory results reported in patent US10544472B2, “Multiplexing transcription factor reporter protein assay process and system” (Attagene, Inc., priority 2014, dated 2020).

Legend:
NF-κB response element = test: Multiplexed Gluc-tag reporter assay, NF-κB response element; format: cell-based
Protocol: (§1) Two separate detection assays were conducted to check the profile of FCICC (6-Formylindolo [3, 2-b] carbazole Indolo [3,2-b] carbazole-6-carboxaldehyde-5, 11-dihydro, an AhR response element inducer, commercially available from Biomol, Plymouth Meeting, Pa.) and IL-1β and TNF-α (NF-κB response element inducer).
(§2) Purified Antibodies were diluted in DPBS with 5% glycerol at 5 μg/ml concentration. […] of diluted antibody solutions were dispensed onto wells of a […] 600 plate (Greiner Bio-One, Monroe, N.C.), and the plate was tapped gently to distribute the antibody solutions evenly on the bottom of the well. The plate was sealed tightly with a PCR sealing film. The antibody plate was stored at 4° C. for one week for antibodies to bind.
(§3) At the end of incubation, 200 μl of Blocking Reagent (Attagene, Research Triangle Park, N.C.) was added to the wells to block the unbounded surface, either for 1 hour at room temperature for quick use, or at 4° C. overnight. The plate was washed 4 times with DPBS (Invitrogen, Carlsbad, Calif.) by flicking the solution out into a waste container and then blotted dry briefly on layers of paper towel. Target samples were diluted in Binding Reagent (Attagene, Inc., Research Triangle Park, N.C.). After the washing, 100 μl of diluted testing samples were added to the well and incubated at RT for 1 hour with gentle rocking agitation.
(§4) After the incubation, samples were removed by gently flicking and the plate was washed 4 times with DPBS as above. […] The reading was normalized against the minimal promoter driven reporter.

CRE = test: Multiplexed Gluc-tag reporter assay, CRE; format: cell-based; settings: twelve response elements/Gluc tags, four assays (FIG. 8)
Protocol: as §2, §3, §4

[1] = Stability of coelenterazine substrate in assay reagents; format: physicochemical; settings: over 70 minutes after dilution from methanol stock into assay reagents
Protocol: It is well known that coelenterazine is not stable in aqueous solutions. FIGS. 3C and 3D show the stability profiles of coelenterazine substrate in different assay reagents after being diluted from its methanol stock. A solution of Gluc enzyme was injected at different time points into substrates that were prepared at the same time. The overall signal strength decreased about ten times over 70 minutes and there was no significant difference among these buffers in the stability of the substrate. Once again, the Attagene reagent provided better sensitivity and stronger RLU output.

AhR response element = test: Multiplexed Gluc-tag reporter assay, AhR response element; format: cell-based
Protocol: as §1, §2
At the end of incubation, 200 μl of Blocking Reagent (Attagene, Research Triangle Park, N.C.) was added to the wells to block the unbounded surface, either for 1 hour at room temperature for quick use, or at 4° C. overnight. The plate was washed 4 times with DPBS (Invitrogen, Carlsbad, Calif.) by flicking the solution out into a waste container and then blotted dry briefly on layers of paper towel. […]
as §4

[2] = seven antibodies on 96-well plate, two separate detection assays (FIGS. 7A, 7B)
[3] = twelve response elements/Gluc tags, four assays (FIG. 8)

Row | Compound | induction of NF-κB (NF-κB response element; [2]) | induction of NF-κB (NF-κB response element; [3]) | other results
1 | IL-1β: NF-κB response element inducer | specific induction | specific induction | 
2 | C=C[C@@]1(C)CC(=O)[C@]2(O)[C@@]3(C)[C@@H](O)CCC(C)(C)[C@@H]3[C@H](O)[C@H](OC(C)=O)[C@@]2(C)O1 [FSK] |  |  | induction of CRE (CRE): specific induction
3 | Oc1ccc(Cc2nc3c(Cc4ccccc4)nc(-c4ccc(O)cc4)cn3c2O)cc1 [coelenterazine] |  |  | decrease of overall signal strength [1]: about ten
4 | O=Cc1c2[nH]c3ccccc3c2cc2c1[nH]c1ccccc12 [FCICC, 6-Formylindolo [3,2-b] carbazole Indolo [3,2-b] carbazole-6-carboxaldehyde-5, 11-dihydro] |  |  | induction of AhR (AhR response element; [2]): specific induction; induction of AhR (AhR response element; [3]): specific induction
5 | TNF-α | specific induction | specific induction | 
